# What was measured:
# human skin excerpts = assay: Labeling of human skin excerpts by caged haptens
# From the text: The first step is that the molecules come into contact with the skin (the stratum corneum). Many of the reactive molecules react in the stratum corneum, something that can be seen in experiments with human skin excerpts and the caged (mBBr and dBBr) haptens. However, a significant proportion of the molecules penetrate further down to the suprabasal layers of the epidermis but also the follicular pathway is of importance for bringing xenobiotics into the skin. It is likely that the penetration is due both to the acidic pH of the stratum corneum (the molecules react more slowly when the pH is low), but also because many of the available groups have reacted. In the suprabasal layers, the haptens have a hard time penetrating the cells, as the cornification of the cells creates a thick, relatively impermeable envelope around the suprabasal cells. Consequently, the haptens penetrate down to the basal layer. Here, the cell membrane is much thinner and more fluidic and the molecules can thus enter the basal cells.
# [1] = tested on: serum amyloid P component (SAP); assay: Serum amyloid P component (SAP) in sera of mice exposed to sensitizers; type: in vivo; conditions: sera of mice exposed to sensitizer
# [2] = tested on: anti-nuclear antibodies (ANA); assay: Anti-nuclear antibodies (ANA) in sera of mice topically exposed to haptens; type: in vivo; conditions: topical exposure
# keratins = assay: Protein cross-linking by bidentate haptens (SDS gels of blebs); type: cell-based, human; conditions: bidentate hapten
# From the text: In SDS-PAGE experiments it was shown that thiol-, amine-, and arginine-reactive sensitizers give rise to blebs that contain the same proteins. […] It was also shown that the sensitizing compounds also modify other proteins and that these proteins are released in blebs, as visualized by fluorescent bands on SDS-gels.
smiles,measurement,setting,value
"Cc1c(CBr)n2c(CBr)c(C)c(=O)n2c1=O [dBBr, dibromobimane]",Labeling of cells in the basal layer,human skin excerpts,cells in the basal layer are labeled
same,Level of serum amyloid P component (SAP),[1],increased levels
same,Level of anti-nuclear antibodies (ANA) in sera,[2],increased levels
same,Cross-links between keratins,keratins,cause cross-links

# Reference: US20110245104A1, “Method for screening the sensitizing properties of chemical compounds” (priority 2010, published 2011)
